Read-outs that look alike come from different tables or passages of the source.
What was measured:
recombinant human DHFR [1] = biological target: T1, recombinant human DHFR (Homo sapiens, UniProt P00374); parameters: method as in PMID 31892256; settings: previously synthesized TMP analogs A–F; cited from earlier work
T1 construct: purchased
T1 sequence (P00374 1-187): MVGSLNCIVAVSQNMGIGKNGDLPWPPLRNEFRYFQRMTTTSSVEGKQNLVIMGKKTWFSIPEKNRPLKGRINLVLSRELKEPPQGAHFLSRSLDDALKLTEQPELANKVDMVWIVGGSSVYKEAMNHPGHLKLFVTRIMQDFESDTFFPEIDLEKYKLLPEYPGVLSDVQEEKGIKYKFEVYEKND

pBR322 plasmid = settings: cited from earlier work
recombinant human DHFR [2] = biological target: T1, recombinant human DHFR; assay: Dihydrofolate reductase (DHFR) inhibition assay; type: biochemical; settings: assay kit
calf thymus DNA = test system: calf thymus DNA; parameters: method as in earlier work; settings: reference values; KEtBr known (ref 25, 47); NT ref 48 (table row: ref 45); cited from earlier work
poly(dA-dT)2 = test system: poly(dA-dT)2; parameters: method as in earlier work; settings: reference values; KEtBr known (ref 25, 47); NT ref 48 (table row: ref 45); cited from earlier work
poly(dG-dC)2 = test system: poly(dG-dC)2; parameters: method as in earlier work; settings: reference values; KEtBr known (ref 25, 47); NT ref 48 (table row: ref 45); cited from earlier work
T4 coliphage DNA = test system: T4 coliphage DNA; parameters: method as in earlier work; settings: reference values; KEtBr known (ref 25, 47); NT ref 48 (table row: ref 45); cited from earlier work

Compound | IC50 (recombinant human DHFR [1]) | DNA-binding activity expressed as % decrease of fluorescence (pBR322 plasmid; previous study) | IC50 (recombinant human DHFR [2]) | Kapp Calf Thymus DNA (calf thymus DNA) | Kapp Poly (dA-dT)2 (poly(dA-dT)2) | Kapp poly (dG-dC)2 (poly(dG-dC)2) | Kapp T4 DNA (T4 coliphage DNA) | Decrease of Fluorescence (DNA-binding effect) (pBR322 plasmid; pBR322 plasmid, same conditions, 48 (table row: ref 45))
COc1ccc(CC(=O)Nc2cnc(N)nc2)c(OC)c1OC [B] | 0.99 µM | 45.18% |  |  |  |  |  | 
Cn1cc(NC(=O)c2cc(NC(=O)CN=C(N)N)cn2C)cc1C(=O)NCCC(=N)N [NT, netropsin] |  |  | 20.56 ± 0.01 µM | 870000 M⁻¹ | 8.75e+07 M⁻¹ | 250000 M⁻¹ | 830000 M⁻¹ | 74%
